In ChEMBL document CHEMBL5625161, “Pharmacological activity and mechanism of pyrazines” (Eur J Med Chem, 2023):
One block for each compound: values may come before it.

Columns and labels:
[1] = tested on: L02; test: Antiproliferative activity against human HL7702 cells assessed as cell growth inhibition measured after 72 hrs by MTT assay; format: functional, cell-based; details: L02, 72 h
[2] = tested on: HeLa; test: Antitumor activity against human HeLa cells assessed as cell growth inhibition incubated for 72 hrs by MTT assay; format: functional, cell-based
[3] = tested on: MGC-803; test: Antiproliferative activity against human MGC-803 cells assessed as inhibition of cell growth incubated for 72 hrs by MTT assay; format: functional, cell-based; details: MGC-803, 72 h
[4] = Antiproliferative activity against human WI-38 cells assessed as cell growth inhibition measured after 72 hrs by MTT assay; format: toxicity, cell-based
[5] = tested on: T-24; test: Antiproliferative activity against human T-24 cells assessed as inhibition of cell growth incubated for 72 hrs by MTT assay; format: functional, cell-based; details: T-24, 72 h
[6] = tested on: HT-29; test: Antiproliferative activity against human HT-29 cells assessed as reduction in cell viability incubated for 72 hrs by MTT assay; format: functional, cell-based; details: HT-29, 72 h
[7] = tested on: MCF7; test: Cytotoxicity against human MCF7 cells assessed as cell growth inhibition measured after 48 hrs by MTT assay; format: functional, cell-based; details: MCF7, 48 h
[8] = tested on: K562; test: Cytotoxicity against human K562 cells assessed as cell growth inhibition measured after 48 hrs by MTT assay; format: functional, cell-based; details: K562, 48 h
[9] = tested on: HCT-116; test: Cytotoxicity against human HCT-116 cells assessed as cell growth inhibition measured after 48 hrs by MTT assay; format: functional, cell-based; details: HCT-116, 48 h
[10] = Antiproliferative activity against human PaTu8988 cells assessed as reduction in cell viability measured after 72 hrs by MTT assay; format: functional, cell-based; details: PaTu8988, 72 h
[11] = tested on: SMMC-7721; test: Antiproliferative activity against human SMMC-7721 cells assessed as reduction in cell viability measured after 72 hrs by MTT assay; format: functional, cell-based; details: SMMC-7721, 72 h
[12] = tested on: SGC-7901; test: Antiproliferative activity against human SGC-7901 cells assessed as reduction in cell viability measured after 72 hrs by MTT assay; format: functional, cell-based; details: SGC-7901, 72 h
[13] = target: Histone deacetylase 1 (Homo sapiens, UniProt Q13547); test: Inhibition of human recombinant HDAC1
[14] = tested on: MCF7; test: Antiproliferative activity against human MCF7 cells assessed as reduction in cell viability incubated for 48 hrs by MTT assay; format: functional, cell-based; details: MCF7, 48 h
[15] = target: Histone deacetylase 3 (Homo sapiens, UniProt O15379); test: Inhibition of human recombinant HDAC3
[16] = target: Histone deacetylase 2 (Homo sapiens, UniProt Q92769); test: Inhibition of human recombinant HDAC2
[17] = tested on: BJ; test: Cytotoxicity against human BJ cells assessed as cell growth inhibition measured after 72 hrs by Celltiter-Glo assay; format: functional, cell-based
[18] = tested on: LN-229; test: Cytotoxicity against human LN-229 cells assessed as reduction in cell growth incubated for 72 hrs by Celltiter-Glo assay; format: functional, cell-based; details: LN-229, 72 h
[19] = tested on: HCT-116; test: Antiproliferative activity against human HCT-116 cells assessed as inhibition of cell growth at 0.1 uM incubated for 24 hrs by SRB assay relative to control; format: functional; parameters: scale not given: the % may be the effect or the level left
[20] = tested on: MDA-MB-231; test: Antiproliferative activity against human MDA-MB-231 cells assessed as inhibition of cell growth at 0.1 uM incubated for 24 hrs by SRB assay relative to control; format: functional; parameters: scale not given: the % may be the effect or the level left
[21] = tested on: MCF7; test: Antiproliferative activity against human MCF7 cells assessed as inhibition of cell growth at 0.1 uM incubated for 24 hrs by SRB assay relative to control; format: functional; parameters: scale not given: the % may be the effect or the level left
[22] = tested on: A549; test: Antiproliferative activity against human A549 cells assessed as inhibition of cell growth at 10 uM relative to control; format: functional; parameters: scale not given: the % may be the effect or the level left
[23] = tested on: Huh-7; test: Antiproliferative activity against human Huh-7 cells assessed as reduction in cell viability incubated for 48 hrs by MTT assay; format: functional, cell-based; details: Huh-7, 48 h
[24] = target: Mitogen-activated protein kinase 3 (Homo sapiens, UniProt P27361); test: Inhibition of ERK1 (unknown origin)
[25] = target: Mitogen-activated protein kinase 1 (Homo sapiens, UniProt P28482); test: Inhibition of ERK2 (unknown origin)
[26] = target: Mitogen-activated protein kinase 6 (Homo sapiens, UniProt Q16659); test: Inhibition of ERK3 (unknown origin)
[27] = tested on: MCF7; test: Antiproliferative activity against human MCF7 cells assessed as reduction in cell growth incubated for 48 hrs by CCK-8 assay; format: functional, cell-based; details: MCF7, 48 h
[28] = tested on: NCI-H460; test: Antiproliferative activity against human NCI-H460 cells assessed as reduction in cell growth incubated for 48 hrs by CCK-8 assay; format: functional, cell-based; details: NCI-H460, 48 h
[29] = tested on: DU-145; test: Antiproliferative activity against human DU-145 cells assessed as reduction in cell growth incubated for 48 hrs by CCK-8 assay; format: functional, cell-based; details: DU-145, 48 h
[30] = tested on: PC-9; test: Antiproliferative activity against human PC-9 cells assessed as reduction in cell growth incubated for 72 hrs by MTT assay; format: functional, cell-based; details: PC-9, 72 h
[31] = tested on: PC-9/ER; test: Antiproliferative activity against human PC-9/ER cells assessed as inhibition of cell growth incubated for 48 hrs by MTT assay; format: functional
[32] = tested on: CCRF-CEM; test: Growth inhibition of human CCRF-CEM cells; format: functional, cell-based; details: pooled result: one value given for 60 cell lines, strains, targets or settings
[33] = tested on: KG-1; test: Antiproliferative activity against human KG-1 cells assessed as reduction in cell viability incubated for 72 hrs by MTT assay; format: functional, cell-based; details: KG-1, 72 h

Sequence of Histone deacetylase 1 (Q13547 whole entry): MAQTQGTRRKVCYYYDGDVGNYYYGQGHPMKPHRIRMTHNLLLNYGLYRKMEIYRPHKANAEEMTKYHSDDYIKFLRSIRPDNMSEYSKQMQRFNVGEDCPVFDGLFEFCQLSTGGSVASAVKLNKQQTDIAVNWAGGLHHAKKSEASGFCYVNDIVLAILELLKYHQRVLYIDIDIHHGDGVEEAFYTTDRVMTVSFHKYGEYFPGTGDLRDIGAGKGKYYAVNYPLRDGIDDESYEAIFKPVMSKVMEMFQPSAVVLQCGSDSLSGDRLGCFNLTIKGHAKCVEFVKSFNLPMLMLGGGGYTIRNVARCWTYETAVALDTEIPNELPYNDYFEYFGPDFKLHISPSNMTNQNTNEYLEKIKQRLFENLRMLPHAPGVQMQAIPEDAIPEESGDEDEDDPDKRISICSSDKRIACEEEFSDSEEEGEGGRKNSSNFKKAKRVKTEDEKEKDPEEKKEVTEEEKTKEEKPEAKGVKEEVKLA
Sequence of Histone deacetylase 3 (O15379 whole entry): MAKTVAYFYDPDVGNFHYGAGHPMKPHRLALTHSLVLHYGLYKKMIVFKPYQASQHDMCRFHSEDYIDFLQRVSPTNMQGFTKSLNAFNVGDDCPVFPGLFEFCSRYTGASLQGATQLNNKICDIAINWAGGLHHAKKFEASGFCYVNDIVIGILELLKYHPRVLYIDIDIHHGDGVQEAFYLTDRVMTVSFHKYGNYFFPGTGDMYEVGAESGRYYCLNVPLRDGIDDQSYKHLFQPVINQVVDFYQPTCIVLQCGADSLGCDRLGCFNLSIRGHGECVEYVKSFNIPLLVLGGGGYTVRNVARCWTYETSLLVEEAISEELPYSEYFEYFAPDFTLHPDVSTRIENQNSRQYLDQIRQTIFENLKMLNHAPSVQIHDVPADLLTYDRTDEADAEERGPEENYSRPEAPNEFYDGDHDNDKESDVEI
Sequence of Mitogen-activated protein kinase 3 (P27361 whole entry): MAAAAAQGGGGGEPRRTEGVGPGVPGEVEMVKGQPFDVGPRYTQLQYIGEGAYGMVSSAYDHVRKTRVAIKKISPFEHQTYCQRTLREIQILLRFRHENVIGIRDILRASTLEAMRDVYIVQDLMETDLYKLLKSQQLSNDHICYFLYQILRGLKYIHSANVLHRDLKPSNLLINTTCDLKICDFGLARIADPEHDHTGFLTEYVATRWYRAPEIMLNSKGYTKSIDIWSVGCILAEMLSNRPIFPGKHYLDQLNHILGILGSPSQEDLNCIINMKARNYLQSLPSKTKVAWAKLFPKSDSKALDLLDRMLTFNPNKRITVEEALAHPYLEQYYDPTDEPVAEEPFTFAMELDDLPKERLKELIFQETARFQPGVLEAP
Sequence of Mitogen-activated protein kinase 1 (P28482 whole entry): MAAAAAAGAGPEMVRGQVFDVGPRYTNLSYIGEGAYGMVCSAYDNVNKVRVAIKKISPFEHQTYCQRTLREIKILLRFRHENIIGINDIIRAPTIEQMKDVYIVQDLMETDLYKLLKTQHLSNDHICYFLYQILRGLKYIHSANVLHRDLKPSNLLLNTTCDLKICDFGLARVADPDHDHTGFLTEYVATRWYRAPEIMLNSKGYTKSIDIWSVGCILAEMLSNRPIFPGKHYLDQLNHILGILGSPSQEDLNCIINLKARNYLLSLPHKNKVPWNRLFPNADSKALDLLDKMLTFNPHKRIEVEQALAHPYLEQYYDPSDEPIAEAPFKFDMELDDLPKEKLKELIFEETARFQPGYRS
Sequence of Mitogen-activated protein kinase 6 (Q16659 whole entry): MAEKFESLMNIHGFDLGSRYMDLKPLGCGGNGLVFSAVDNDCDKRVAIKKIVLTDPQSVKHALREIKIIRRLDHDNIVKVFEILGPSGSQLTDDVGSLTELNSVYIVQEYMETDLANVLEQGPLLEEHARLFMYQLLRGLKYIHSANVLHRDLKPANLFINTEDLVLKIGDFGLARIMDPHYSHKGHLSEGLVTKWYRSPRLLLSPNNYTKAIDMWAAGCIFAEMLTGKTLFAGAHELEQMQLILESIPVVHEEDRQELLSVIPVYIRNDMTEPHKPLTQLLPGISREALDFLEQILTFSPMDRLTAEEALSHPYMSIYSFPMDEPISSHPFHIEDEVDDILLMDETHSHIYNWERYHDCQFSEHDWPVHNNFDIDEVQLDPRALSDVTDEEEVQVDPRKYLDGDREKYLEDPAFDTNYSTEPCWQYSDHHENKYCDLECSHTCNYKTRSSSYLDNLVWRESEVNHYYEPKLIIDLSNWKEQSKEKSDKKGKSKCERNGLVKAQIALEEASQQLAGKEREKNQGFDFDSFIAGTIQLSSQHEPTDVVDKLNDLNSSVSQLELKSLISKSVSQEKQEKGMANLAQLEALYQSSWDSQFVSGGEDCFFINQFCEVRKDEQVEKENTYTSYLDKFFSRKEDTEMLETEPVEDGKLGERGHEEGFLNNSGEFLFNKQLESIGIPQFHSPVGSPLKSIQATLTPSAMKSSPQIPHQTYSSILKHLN
Sequence of Histone deacetylase 2 (Q92769 whole entry): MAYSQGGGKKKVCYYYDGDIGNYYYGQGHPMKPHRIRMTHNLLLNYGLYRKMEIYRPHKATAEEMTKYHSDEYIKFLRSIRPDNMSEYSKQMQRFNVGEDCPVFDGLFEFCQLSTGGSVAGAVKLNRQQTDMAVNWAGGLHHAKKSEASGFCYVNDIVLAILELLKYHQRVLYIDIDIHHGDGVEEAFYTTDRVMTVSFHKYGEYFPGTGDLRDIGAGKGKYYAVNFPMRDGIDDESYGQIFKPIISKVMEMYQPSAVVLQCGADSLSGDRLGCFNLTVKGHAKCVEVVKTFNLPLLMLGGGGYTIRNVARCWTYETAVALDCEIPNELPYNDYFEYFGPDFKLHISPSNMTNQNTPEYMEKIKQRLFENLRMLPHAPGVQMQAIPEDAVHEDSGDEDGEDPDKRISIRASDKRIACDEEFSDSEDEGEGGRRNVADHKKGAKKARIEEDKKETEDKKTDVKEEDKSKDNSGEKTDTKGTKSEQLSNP

- IC50 [2]: 10 µM
- IC50 [3]: 20.2 µM
SMILES: Clc1ccc(-c2nc3oc4ccccc4c3nc2-c2ccc(Cl)cc2)cc1
- IC50 [1]: 25.4 µM
- IC50 at 72 h [4]: > 40 µM
- IC50 [5]: 12.5 µM

- IC50 [6]: 19 nM
SMILES: CNCc1ccc(-c2cc(-c3nc(-c4ccc(S(=O)(=O)C(C)C)cc4)cnc3N)on2)cc1 [BERZOSERTIB]

SMILES: c1ccc(CNc2c(-c3ccncc3)nc3cnccn23)cc1
- IC50 [7]: 6.66 µM
- IC50 [8]: 6.66 µM
- IC50 [9]: 6.66 µM

- IC50 [11]: 300 nM
- IC50 [12]: 300 nM
SMILES: COc1cccc(/C=N/C(=O)c2cnccn2)c1O
- IC50 [10]: 300 nM

- IC50 [13]: 130 nM
- IC50 [14]: 6.66 µM
- IC50 [15]: 310 nM
- IC50 [16]: 280 nM
SMILES: COc1cnc(C(=O)NCC2(C)CCCC3(C)c4ccc(C(C)C)cc4CCC23)cn1 (stereo not drawn)

SMILES: N#Cc1cncc(Cl)n1
- IC50 [17]: 95.7 µM
- IC50 [18]: 18.2 µM

SMILES: Nc1nc(N2CCCC2CC2CCCC2CO)cnc1-c1cccc(Cl)c1Cl (stereo not drawn)
- Activity [19]: 27%
- Activity [20]: 32%
- Activity [21]: 30%

SMILES: Cc1cc(=O)oc2cc(Oc3nc(-c4ccc(Cl)cc4)cn4c(-c5ccc(Cl)cc5)cnc34)ccc12
- Activity [22]: 90.12%

- IC50 [23]: 12.8 µM
SMILES: N=C(NC(=O)c1nc(Cl)c(N)nc1N)NC(=O)c1c(Cl)cccc1Cl

- IC50 [24]: 210 nM
- IC50 [25]: 210 nM
- IC50 [26]: 210 nM
SMILES: CN1CCN([C@H]2C[C@@H](c3nc(-c4ccc5ccc(-c6ccccc6)nc5c4)c4c(N)nccn43)C2)CC1

SMILES: C[C@@H]1[C@]2(O[C@H]3C=C4[C@@H]5CC[C@H]6Cc7nc8c(nc7C[C@]6(C)[C@H]5C[C@@H](O)[C@]4(C)[C@]31O)C[C@@H]1CC[C@H]3C4=CC[C@@H]5[C@H](C)[C@@]6(OC[C@]45C(=O)C[C@@H]3[C@@]1(C)C8)OC(C)(C)C[C@H]6O)O[C@](C)(CO)C[C@H]2O [CEPHALOSTATIN 1]
- IC50 [27]: 0.099 nM
- IC50 [28]: 0.044 nM
- IC50 [29]: 0.11 nM

- IC50 [30]: 90 nM
- IC50 [31]: 0.15 µM
SMILES: c1cc2cc(-c3cnc4nc(-c5ccc6c(c5)OCCO6)cnc4c3)ccc2[nH]1

- IC50 [32]: 810 nM
SMILES: c1cn2cc(-c3ccc4ncn(C5CCCCC5)c4c3)nc(-c3ccc4ncn(C5CCCCC5)c4c3)c2n1

SMILES: O=S(=O)(c1cn(CCF)cn1)n1ccc2ncc(-c3cn[nH]c3)nc21
- IC50 [33]: 29.1 nM
